This is an account of results in paper PMC8172068 (PLoS ONE, 2021).

“Also recorded” adds a separate entry of the source. Structures can show the parent of a compound that is named as a salt. Where two headings read alike, the source gives them in different places.

By IC50 is commonly meant the concentration needed to halve the response being measured. A word on the Km: it is the substrate concentration at which the rate is half of its maximum. Usually Vmax stands for the rate approached at saturating substrate.

Holding throughout (type): biochemical
The target in data set [1] is T1, Acinetobacter baumannii rAcpA (Acinetobacter baumannii, UniProt A0ABX6CG12). Briefly: biochemical.
The target in data set [2] is T1, Acinetobacter baumannii rAcpA. Put plainly: rAcpA enzymatic kinetics with PNPP (Lineweaver-Burk). The method, then:
Unless indicated otherwise, reaction mixtures contained 2.0 mM PNPP (Sigma Chemical Co.) or phosphorylated compounds (Sigma Chemical Co.), 0.20 M MES (Sigma Chemical Co.) buffer, pH 6.0, 2.0 mM NiCl2, and 0.080–0.30 μg total Acinetobacter baumannii rAcpA protein, and were brought to a final concentration of 0.186 μg/μL protein with addition of bovine serum albumin (BSA, BioRad Laboratories) in a total reaction volume of 200 μL (determination of released phosphate) or 300 μL (determination of released paranitrophenol). All incubations were carried out for 30 minutes at 37 °C after which time reactions were placed in an ice slurry for 3 minutes followed by addition of enzyme to the respective blanks and reactions were terminated by heating at 65 °C for 10 minutes followed by immersion in an ice slurry for 3 minutes. Released phosphate was determined by addition of 1.0 mL BIOMOL GREEN phosphate reagent (Enzo Life Sciences), and monitored at 620 nm using a Genesys 10 UV Scanning Spectrophotometer (Thermo Scientific). Paranitrophenol was monitored at 405 nm following addition of 1.7 mL 0.5 M Glycine buffer, pH 10. Following subtraction of blank values, paranitrophenol and released phosphate were quantitated using paranitrophenol and phosphate standard curves, respectively. All reactions, i.e., generation of paranitrophenol and release of free phosphate were linear with both time (30 minutes) and assay protein (0.30 μg, ~ 13.2 nM). Specific activity is expressed as nmoles paranitrophenol or free phosphate liberated mg^-1s^-1.
The effect of increasing PNPP substrate on Acinetobacter baumannii rAcpA activity was determined.
Fig 4 Determination of Km and Vmax. Enzymatic activity (0.149 μg rAcpA) was determined over a broad range of PNPP concentrations (0.10–10.0 mM) in replicates of five for each substrate concentration tested and corresponding blank. Km and Vmax values were derived from standard Lineweaver-Burk plot analysis. Error bars represent 1 standard deviation from the mean.

Data set [3] shares this target.
The target is the same in data set [4]. Briefly: Hydrolysis of various phosphorylated compounds by rAcpA (released phosphate). Conditions: phosphate released relative to paranitrophenol released from PNPP x100. As for the experimental part: All incubations were carried out for 30 minutes at 37 °C after which time reactions were placed in an ice slurry for 3 minutes followed by addition of enzyme to the respective blanks and reactions were terminated by heating at 65 °C for 10 minutes followed by immersion in an ice slurry for 3 minutes. Released phosphate was determined by addition of 1.0 mL BIOMOL GREEN phosphate reagent (Enzo Life Sciences), and monitored at 620 nm using a Genesys 10 UV Scanning Spectrophotometer (Thermo Scientific). Paranitrophenol was monitored at 405 nm following addition of 1.7 mL 0.5 M Glycine buffer, pH 10. Following subtraction of blank values, paranitrophenol and released phosphate were quantitated using paranitrophenol and phosphate standard curves, respectively. […] Specific activity is expressed as nmoles paranitrophenol or free phosphate liberated mg^-1s^-1.

The mark [5] stands for this setting: PNPP 0.10–10.0 mM, 0.149 μg rAcpA, Lineweaver-Burk plot.
Where [6] appears, read: pH 6.0, divalent cation 2 mM final concentration.
The mark [7] stands for this setting: compound at 2.0 mM final concentration.
Where [8] appears, read: compound at 0.1 mM final concentration.

For `[F-].[Na+]` [Sodium Fluoride], in data set [1] (pH 6, read-out: IC50), the half-maximal inhibitory concentration (IC50) was 6000 µM. Take `O=[N+]([O-])c1ccc(OP(=O)(O)O)cc1` [PNPP]: in data set [2] (setting [5]), the Km was found to be 90 µM and the Vmax came out at 19.2 pmol/s. In addition, the “turnover number (kcat)” value in data set [2] (calculated on the basis of 37 kDa) is 4.80 s⁻¹. In turn, `O=P(O)(O)OP(=O)(O)O` [Sodium Pyrophosphate] came in with an IC50 in data set [1] of 2500 µM. On to `O[C@H](CS)[C@@H](O)CS` [Dithioerythritol], for which the IC50 in data set [1] (pH 6, read-out: IC50) is 2000 µM. For Tween 20, in data set [1], the “Percent Control” value is given as 140% and the “stimulation of PNPP hydrolysis” value was ~ 1.4 fold.

In the case of `[Cl-].[Cl-].[Zn+2]` [ZnCl2], the “PNPP hydrolysis as percent of that observed for NiCl2” value (from here on “PNPP hydrolysis as percent”) in data set [3] (setting [6]) is 11%. On to `[Cl][Mn][Cl]` [MnCl2], for which, in data set [3] (setting [6]), the “PNPP hydrolysis as percent” value is reported as 50%. As to mercury, the “PNPP hydrolysis as percent” value in data set [3] (setting [6]) is on record as “very inhibitory”. Turning to `O=P(O)(O)O` [Sodium Phosphate], the IC50 in data set [1] (pH 6, read-out: IC50) was 9000 µM. CoCl2: the “PNPP hydrolysis as percent” value in data set [3] (pH 6) stood at 76%. `[Na+].[Na+].[Na+].[O]=[V]([O-])([O-])[O-]` [Vanadate, sodium orthovanadate]: the IC50 in data set [1] (pH 6, read-out: IC50) turned out to be 125 µM; in data set [1] (read-out: IC50), 125 µM.

Consider `[Cl][Ni][Cl]` [NiCl2], for which the “PNPP hydrolysis as percent” value in data set [3] (setting [6]) is recorded as “Maximum hydrolysis”. Consider `CCCCCCCCCCCCOS(=O)(=O)[O-].[Na+]` [Sodium Dodecyl Sulfate], for which the 50% inhibitory concentration (IC50) amounted to 100 µM in data set [1] (pH 6, read-out: IC50) and 100 µM in data set [1] (read-out: IC50). Consider `OCCS` [β-Mercaptoethanol], for which, in data set [1] (pH 6, read-out: IC50), the IC50 amounted to 10000 µM. Regarding `O=C(O)C(O)C(O)C(=O)O` (centres unmarked) [Sodium Tartrate], the IC50 in data set [1] was found to be 2000 µM.

With `[O]=[Mo](=[O])([OH])[OH]` [Molybdate], the IC50 in data set [1] (pH 6, read-out: IC50) was 350 µM; in data set [1] (read-out: IC50), 350 µM. Consider Triton X100, for which the “concentration inhibiting 50%” value in data set [1] was found to be 0.32 % v/v. The half-inhibitory concentration (IC50) in data set [1] (pH 6, read-out: IC50) was 5100 µM.

On to `NC(=O)c1ccc[n+]([C@@H]2O[C@H](COP(=O)([O-])OP(=O)(O)OC[C@H]3O[C@@H](n4cnc5c(N)ncnc54)[C@H](OP(=O)(O)O)[C@@H]3O)[C@@H](O)[C@H]2O)c1` [NADP^+], for which, in data set [4] (setting [7]), the “Relative Activity” value was determined as 3.7%.

“T-S-T-E-P-Q-pY-Q-P-G-E-N-L [Tyrosine Phosphopeptide]”: the “Relative Activity” value in data set [4] (setting [8]) was 20.0%; in data set [4] (compound at 0.1 mM final concentration, listed as tyrosine phosphopeptide) it was 20%. On to `C[N+](C)(C)CCOP(=O)(O)O` [Phosphocholine], for which the “Relative Activity” value in data set [4] (setting [7]) stood at 2.0%. Regarding `C[C@@H](OP(=O)(O)O)[C@H](N)C(=O)O` [Phospho-L-Threonine], the “Relative Activity” value in data set [4] (setting [7]) amounted to 4.5%.

For the molecule `[Cl-].[Cl-].[Mg+2]` [MgCl2], the “PNPP hydrolysis as percent” value in data set [3] (setting [6]) was 85%. `O=c1ccn([C@@H]2O[C@H](COP(=O)(O)OP(=O)(O)O)[C@@H](O)[C@H]2O)c(=O)[nH]1` [UDP]: in data set [4] (setting [7]), the “Relative Activity” value is reported as 1.8%.

In data set [1], `O[C@@H](CS)[C@@H](O)CS` [Dithiothreitol] displayed an IC50 of 3000 µM. `O=C(O)CN(CCN(CC(=O)O)CC(=O)O)CC(=O)O` [EDTA]: the IC50 in data set [1] (pH 6, read-out: IC50) was found to be 1250 µM. Consider `C=C1[C@@H](O)[C@@H]2O[C@]3(CC[C@H](/C=C/[C@@H](C)[C@@H]4CC(C)=C[C@@]5(O[C@H](C[C@@](C)(O)C(=O)O)CC[C@H]5O)O4)O3)CC[C@H]2O[C@@H]1[C@@H](O)C[C@H](C)[C@H]1O[C@@]2(CCCCO2)CC[C@H]1C` [Okadaic acid], for which, in data set [1], the “Percent Control” value was 100% and the “sensitivity of rAcpA to compound” value is on record as “insensitive; also recorded: did not inhibit”. `Nc1ccn([C@@H]2O[C@H](COP(=O)(O)O)[C@@H](O)[C@H]2O)c(=O)n1` [CMP]: the “Relative Activity” value in data set [4] (setting [7]) is recorded as 4.1%. As for `O=C[C@@H](O)[C@@H](O)[C@H](O)[C@H](O)COP(=O)(O)O` [Mannose-6-Phosphate], the “Relative Activity” value in data set [4] (setting [7]) worked out at 10.6%.

B1: β-Casein: a 30 kDa protein containing 5 serine residues (protein, UniProt P02666 16-224, looked up)
Beta-casein: RELEELNVPGEIVESLSSSEESITRINKKIEKFQSEEQQQTEDELQDKIHPFAQTQSLVYPFPGPIPNSLPQNIPPLTQTPVVVPPFLQPEVMGVSKVKEAMAPKHKEMPFPKYPVEPFTESQSLTLTDVENLHLPLPLLQSWMHQPHQPLPPTVMFPPQSVLSLSQSKVLPVPQKAVPYPQRDMPIQAFLLYQEPVLGPVRGPFPIIV
B1: the “Relative Activity” value in data set [4] (setting [8]) turned out to be 1.2%.
